Assay results taken from ChEMBL document CHEMBL1157050, “Synthesis and cytotoxic evaluation of N2-benzylated quaternary beta-carboline amino acid ester conjugates” (Eur J Med Chem, 2010).

Tests used:
Format in all cases: functional, cell-based
[1] = test system: 786-0; experiment: Cytotoxicity against human 786-0 cells by MTT assay
[2] = Cytotoxicity against human BGC cells by MTT assay
[3] = test system: A-375; experiment: Cytotoxicity against human A375 cells by MTT assay
[4] = test system: KB; experiment: Cytotoxicity against human KB cells by MTT assay
[5] = test system: 769-P; experiment: Cytotoxicity against human 769-P cells by MTT assay

| SMILES | IC50 [1] [µM] | IC50 [2] [µM] | IC50 [3] [µM] | IC50 [4] [µM] | IC50 [5] [µM] |
| --- | --- | --- | --- | --- | --- |
| CC(C)[C@H](NC(=O)c1cc2c3ccccc3n(CCCc3ccccc3)c2cn1)C(=O)O | 84.6 | 139 | 58 | 106 | 78.3 |
| O=C(N[C@@H](Cc1ccccc1)C(=O)O)c1cc2c3ccccc3n(CCCc3ccccc3)c2cn1 | 52.7 | 76.1 | 33.8 | 38.8 | 8 |
| CCOC(=O)[C@H](Cc1ccccc1)NC(=O)c1cc2c3ccccc3n(CCCc3ccccc3)c2cn1 | > 200 | > 200 | > 200 | 89.2 | 187 |
| CCCCn1c2ccccc2c2cc(C(=O)N[C@@H](CCSC)C(=O)OCC)[n+](Cc3ccccc3)cc21 | 1.7 | 13.4 | 8.2 | 10.8 | 7.5 |
| CCCCn1c2ccccc2c2cc(C(=O)N[C@@H](Cc3ccc(O)cc3)C(=O)OC)ncc21 | > 200 | > 200 | > 200 | > 200 | > 200 |
| CCOC(=O)[C@@H](NC(=O)c1cc2c3ccccc3n(CCCc3ccccc3)c2cn1)C(C)C | > 200 | > 200 | > 200 | > 200 | > 200 |
| CCCCn1c2ccccc2c2cc(C(=O)N[C@@H](C)C(=O)OC)ncc21 | > 200 | > 200 | > 200 | > 200 | 27.2 |
| CCCCn1c2ccccc2c2cc(C(=O)N[C@H](C(=O)OC)C(C)C)ncc21 | > 200 | > 200 | > 200 | > 200 | > 200 |
| CSCC[C@H](NC(=O)c1cc2c3ccccc3n(CCCc3ccccc3)c2cn1)C(=O)O | 70 | 136 | 58.9 | 96.6 | 116 |
| CCCCn1c2ccccc2c2cc(C(=O)N[C@@H](Cc3ccccc3)C(=O)OCC)[n+](Cc3ccccc3)cc21 | 15 | 21.4 | 41.7 | 11.3 | 19.2 |
| CCOC(=O)[C@H](CCSC)NC(=O)c1cc2c3ccccc3n(CCCc3ccccc3)c2cn1 | > 200 | > 200 | > 200 | 176 | > 200 |
| CCCCn1c2ccccc2c2cc(C(=O)N[C@@H](Cc3ccccc3)C(=O)O)ncc21 | 191 | > 200 | 160 | 155 | 114 |
| CCOC(=O)[C@H](Cc1ccccc1)NC(=O)c1cc2c3ccccc3n(CCCc3ccccc3)c2c[n+]1Cc1ccccc1 | 23.4 | 23.7 | 21.3 | 18.2 | 22.9 |
| CCCCn1c2ccccc2c2cc(C(=O)N[C@@H](Cc3ccccc3)C(=O)OC)ncc21 | > 200 | > 200 | > 200 | > 200 | > 200 |
| CCOC(=O)[C@@H](NC(=O)c1cc2c3ccccc3n(Cc3ccccc3)c2c[n+]1Cc1ccccc1)C(C)C | 10.8 | 21.9 | 15.8 | 25.3 | 12.5 |
| CCCCn1c2ccccc2c2cc(C(=O)N[C@@H](CCSC)C(=O)OCC)ncc21 | > 200 | > 200 | > 200 | > 200 | > 200 |

| SMILES | IC50 [1] [µM] | IC50 [2] [µM] | IC50 [3] [µM] | IC50 [4] [µM] | IC50 [5] [µM] |
| --- | --- | --- | --- | --- | --- |
| CCCCn1c2ccccc2c2cc(C(=O)N[C@H](C(=O)OCC)C(C)C)[n+](Cc3ccccc3)cc21 | 14.4 | 44.2 | 22.5 | 28.4 | 13.7 |
| C[C@H](NC(=O)c1cc2c3ccccc3n(CCCc3ccccc3)c2cn1)C(=O)O | 78.3 | 162 | 96.3 | 179 | 120 |
| COC(=O)[C@H](C)NC(=O)c1cc2c3ccccc3n(CCCc3ccccc3)c2cn1 | > 200 | 148 | > 200 | > 200 | > 200 |
| CCOC(=O)[C@@H](NC(=O)c1cc2c3ccccc3n(CCCc3ccccc3)c2c[n+]1Cc1ccccc1)C(C)C | 4 | 17.8 | 10.4 | 12.5 | 14 |
| CCCCn1c2ccccc2c2cc(C(=O)N[C@@H](CCSC)C(=O)OCC)nc(C)c21 | > 200 | > 200 | > 200 | > 200 | > 200 |
| CCCCn1c2ccccc2c2cc(C(=O)N[C@@H](Cc3ccccc3)C(=O)OCC)ncc21 | > 200 | > 200 | > 200 | 113 | 32.5 |
| CCCCn1c2ccccc2c2cc(C(=O)N[C@@H](Cc3ccc(O)cc3)C(=O)O)ncc21 | > 200 | > 200 | 121 | > 200 | > 200 |
| CCOC(=O)[C@H](CCSC)NC(=O)c1cc2c3ccccc3n(Cc3ccccc3)c2cn1 | > 200 | > 200 | > 200 | > 200 | > 200 |
| CCCCn1c2ccccc2c2cc(C(=O)N[C@@H](Cc3ccccc3)C(=O)OCC)nc(C)c21 | > 200 | > 200 | > 200 | > 200 | > 200 |
| CCOC(=O)[C@H](CCSC)NC(=O)c1cc2c3ccccc3n(CCCc3ccccc3)c2c[n+]1Cc1ccccc1 | 10.1 | 12 | 7.3 | 9.4 | 7.6 |
| CCCCn1c2ccccc2c2cc(C(=O)N[C@@H](CCSC)C(=O)O)ncc21 | > 200 | > 200 | > 200 | > 200 | 105 |
| CCOC(=O)[C@H](Cc1ccccc1)NC(=O)c1cc2c3ccccc3n(Cc3ccccc3)c2cn1 | > 200 | > 200 | > 200 | > 200 | > 200 |
| CCOC(=O)[C@H](Cc1ccccc1)NC(=O)c1cc2c3ccccc3n(Cc3ccccc3)c2c[n+]1Cc1ccccc1 | 69.4 | 92.5 | 25.8 | 51.4 | 13.5 |
| CC(=O)O[C@H]1C(=O)[C@@]2(C)[C@H]([C@H](OC(=O)c3ccccc3)[C@]3(O)C[C@H](OC(=O)[C@H](O)[C@@H](NC(=O)c4ccccc4)c4ccccc4)C(C)=C1C3(C)C)[C@]1(OC(C)=O)CO[C@@H]1C[C@@H]2O [PACLITAXEL] | < 0.08 | 1.5 | 0.81 | 0.08 | 7.1 |
| CSCC[C@H](NC(=O)c1cc2c3ccccc3n(Cc3ccccc3)c2cn1)C(=O)O | > 200 | > 200 | 156 | 135 | 145 |
